Key:
[1] = Test Example 3: maximum emission wavelength by spectrofluorometer; assay type: physicochemical; settings: after several hours under the conditions of Test Example 1; spectrofluorometer F-7000
Description: After a lapse of several hours under the conditions of Test Example 1, the samples were measured with use of a spectrofluorometer F-7000 (from Hitachi High-Tech Science Corporation), to find maximum emission wavelength.

alkaline phosphatase = experiment: Test Example 2: chemiluminescence intensity versus amount of alkaline phosphatase, limit of detection; assay type: biochemical; settings: 42° C., 5 minutes incubation
Description: A solution of 1,2-dioxetane derivative (Examples 1 to 4) in dimethyl sulfoxide was added to 155 μL of the reaction liquid, and the mixture was kept at 42° C. for one hour. Twenty μL of a solution containing alkaline phosphatase was added, the mixture was incubated at 42° C. for 5 minutes, and then the chemiluminescence intensity was measured. The reaction liquid used herein was a 2: 1 mixture of a buffer solution (pH 9.6) that contains magnesium chloride and Sapphire-II™ Enhancer (from Thermo Fischer Scientific Inc.), and HISCL R4 reagent (from Sysmex Corporation). In Example 3, two types of sample were prepared, a sample (S(+)) with Sapphire-II™ Enhancer added thereto, and a sample […] without such additive.

[2] = buffer pH 9.6 with magnesium chloride and Sapphire-II Enhancer added (S (+)), HISCL R4 reagent

Row | SMILES | Maximum emission wavelength (nm) [1] [nm] | LOD (zmol) (alkaline phosphatase; [2]) | LOD (zmol) (alkaline phosphatase; Sapphire-II Enhancer not added (S (−)))
1 | COC1(c2ccc(C#Cc3ccc(C(=O)O)cc3)c(OP(=O)(O)O)c2)OOC12C1CC3CC2CC(Cl)(C3)C1 (stereo not drawn) [Example 1] | 498 | 10 | –
2 | C#Cc1ccc(C2(OC)OOC23C2CC4CC3CC(Cl)(C4)C2)cc1OP(=O)(O)O (stereo not drawn) [Example 2] | 468 | 4 | –
3 | COC1(c2ccc(C#CC(=O)O)c(OP(=O)(O)O)c2)OOC12C1CC3CC2CC(Cl)(C3)C1 (stereo not drawn) [Example 3] | 475 | 7 | 1
4 | COC1(c2ccc(-c3ccc(C(=O)O)cc3)c(OP(=O)(O)O)c2)OOC12C1CC3CC2CC(Cl)(C3)C1 (stereo not drawn) [Example 4] | 493 | 100 | –
